# Source: patent US7511077B2, “Diamine calcium channel blockers” (Neuromed Pharmaceuticals Ltd., priority 2005, dated 2009)
# Where two headings read alike, the source gives them in different places.
# Tests used:
# [1] = biological target: T1, rat brain N-type calcium channel subunits (α1B+α2δ+β1b cDNA subunits) (Rattus norvegicus, UniProt Q02294); test: N-type calcium channel block, whole cell patch clamp in HEK 293 cells; type: cell-based; conditions: holding potential −80 mV to +10 mV
# T1 construct: expressed in transfected cells; host or cells: HEK 293
# T1 sequence (Q02294 whole entry): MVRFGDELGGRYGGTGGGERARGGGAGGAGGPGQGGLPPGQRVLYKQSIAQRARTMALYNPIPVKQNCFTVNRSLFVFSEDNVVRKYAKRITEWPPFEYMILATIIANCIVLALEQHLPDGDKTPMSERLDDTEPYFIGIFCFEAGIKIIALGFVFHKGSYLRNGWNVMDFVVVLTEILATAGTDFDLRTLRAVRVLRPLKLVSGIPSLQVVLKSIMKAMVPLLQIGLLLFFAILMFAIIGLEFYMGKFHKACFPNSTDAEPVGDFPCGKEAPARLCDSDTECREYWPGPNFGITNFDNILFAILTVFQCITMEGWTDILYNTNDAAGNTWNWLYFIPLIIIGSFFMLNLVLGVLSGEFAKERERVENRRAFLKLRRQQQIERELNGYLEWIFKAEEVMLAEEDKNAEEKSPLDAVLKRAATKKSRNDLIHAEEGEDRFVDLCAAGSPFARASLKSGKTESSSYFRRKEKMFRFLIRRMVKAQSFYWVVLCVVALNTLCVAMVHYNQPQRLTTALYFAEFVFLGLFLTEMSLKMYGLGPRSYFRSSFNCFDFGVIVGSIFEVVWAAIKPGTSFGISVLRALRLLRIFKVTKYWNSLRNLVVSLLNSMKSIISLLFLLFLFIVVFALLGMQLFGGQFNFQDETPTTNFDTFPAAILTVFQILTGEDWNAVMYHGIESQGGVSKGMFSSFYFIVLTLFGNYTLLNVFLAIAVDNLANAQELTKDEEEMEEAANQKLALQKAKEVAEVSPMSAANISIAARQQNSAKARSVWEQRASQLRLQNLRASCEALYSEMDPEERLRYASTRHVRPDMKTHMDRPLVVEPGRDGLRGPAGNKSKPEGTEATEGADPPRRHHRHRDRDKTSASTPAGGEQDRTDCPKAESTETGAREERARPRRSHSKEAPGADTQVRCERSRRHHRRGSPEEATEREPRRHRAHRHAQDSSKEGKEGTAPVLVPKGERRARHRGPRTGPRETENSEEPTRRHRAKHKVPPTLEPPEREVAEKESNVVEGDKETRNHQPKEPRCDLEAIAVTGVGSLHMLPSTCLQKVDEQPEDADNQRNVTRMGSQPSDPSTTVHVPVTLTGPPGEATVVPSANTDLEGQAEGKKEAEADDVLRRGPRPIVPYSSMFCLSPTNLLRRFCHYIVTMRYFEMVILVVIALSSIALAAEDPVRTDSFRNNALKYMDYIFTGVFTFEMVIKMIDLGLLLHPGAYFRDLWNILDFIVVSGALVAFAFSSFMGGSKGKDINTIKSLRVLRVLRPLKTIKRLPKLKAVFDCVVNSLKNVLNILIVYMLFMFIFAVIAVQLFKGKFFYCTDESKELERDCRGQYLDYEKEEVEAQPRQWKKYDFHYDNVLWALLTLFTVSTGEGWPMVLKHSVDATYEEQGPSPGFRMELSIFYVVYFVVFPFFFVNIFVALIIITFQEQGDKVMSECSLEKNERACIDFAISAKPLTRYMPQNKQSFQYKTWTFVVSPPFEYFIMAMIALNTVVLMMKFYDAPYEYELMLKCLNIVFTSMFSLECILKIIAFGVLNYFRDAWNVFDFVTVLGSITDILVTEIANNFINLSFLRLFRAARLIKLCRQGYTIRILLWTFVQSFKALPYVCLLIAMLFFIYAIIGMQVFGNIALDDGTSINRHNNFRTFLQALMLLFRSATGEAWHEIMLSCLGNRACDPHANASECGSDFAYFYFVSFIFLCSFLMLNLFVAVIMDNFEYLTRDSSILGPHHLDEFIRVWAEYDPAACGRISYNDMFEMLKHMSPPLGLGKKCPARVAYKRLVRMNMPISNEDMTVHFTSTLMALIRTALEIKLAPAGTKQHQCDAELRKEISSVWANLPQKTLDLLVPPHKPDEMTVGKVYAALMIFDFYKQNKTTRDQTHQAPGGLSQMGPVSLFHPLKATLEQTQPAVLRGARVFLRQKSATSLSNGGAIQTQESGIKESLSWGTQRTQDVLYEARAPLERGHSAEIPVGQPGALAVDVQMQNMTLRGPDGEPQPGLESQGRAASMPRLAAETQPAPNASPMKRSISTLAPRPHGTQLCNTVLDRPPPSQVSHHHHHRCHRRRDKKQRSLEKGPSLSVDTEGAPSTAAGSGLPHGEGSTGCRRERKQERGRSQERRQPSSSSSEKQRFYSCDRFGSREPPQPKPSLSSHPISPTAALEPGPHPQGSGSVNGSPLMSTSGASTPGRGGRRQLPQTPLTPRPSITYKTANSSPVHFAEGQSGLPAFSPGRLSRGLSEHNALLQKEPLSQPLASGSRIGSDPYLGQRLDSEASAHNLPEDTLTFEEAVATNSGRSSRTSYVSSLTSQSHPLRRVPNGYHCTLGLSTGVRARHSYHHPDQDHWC
# Description: N-type calcium channel blocking activity was assayed in human embryonic kidney cells, HEK 293, stably transfected with the rat brain N-type calcium channel subunits (α1B+α2δ+β1b cDNA subunits). Alternatively, N-type calcium channels (α1B+α2δ+β1b cDNA subunits), L-type channels (α1C+α2δ+β1b cDNA subunits) and P/Q-type channels (α1A+α2δ+β1b cDNA subunits) were transiently expressed in HEK 293 cells. Briefly, cells were cultured in Dulbecco's modified eagle medium (DMEM) supplemented with 10% fetal bovine serum, 200 U/ml penicillin and 0.2 mg/ml streptomycin at 37° C. with 5% CO2. At 85% confluency cells were split with 0.25% trypsin/1 mM EDTA and plated at 10% confluency on glass coverslips. At 12 hours the medium was replaced and the cells transiently transfected using a standard calcium phosphate protocol and the appropriate calcium channel cDNA's. Fresh DMEM was supplied and the cells transferred to 28° C./5% CO2. Cells were incubated for 1 to 2 days prior to whole cell recording.
# Whole cell patch clamp experiments were performed using an Axopatch 200B amplifier (Axon Instruments, Burlingame, Calif.) linked to a personal computer equipped with pCLAMP software. The external and internal recording solutions contained, respectively, 5 mM BaCl2, 10 mM MgCl2, 10 mM HEPES, 40 mM TEACl, 10 mM glucose, 87.5 mM CsCl (pH 7.2) and 108 mM CsMS, 4 mM MgCl2, 9 mM EGTA, 9 mM HEPES (pH 7.2). Currents were typically elicited from a holding potential of −80 mV to +10 mV using Clampex software (Axon Instruments). Typically, currents were first elicited with low frequency stimulation (0.067 Hz) and allowed to stabilize prior to application of the compounds. The compounds were then applied during the low frequency pulse trains for two to three minutes to assess tonic block, and subsequently the pulse frequency was increased to 0.2 Hz to assess frequency dependent block. Data were analyzed using Clampfit (Axon Instruments) and SigmaPlot 4.0 (Jandel Scientific).
# [2] = biological target: T2, human α1G T-type channels (Homo sapiens, UniProt O43497); test: T-type calcium channel block, patch clamp in HEK cell lines; type: cell-based
# T2 construct: expressed in transfected cells; host or cells: HEK cell lines
# T2 sequence (O43497 whole entry): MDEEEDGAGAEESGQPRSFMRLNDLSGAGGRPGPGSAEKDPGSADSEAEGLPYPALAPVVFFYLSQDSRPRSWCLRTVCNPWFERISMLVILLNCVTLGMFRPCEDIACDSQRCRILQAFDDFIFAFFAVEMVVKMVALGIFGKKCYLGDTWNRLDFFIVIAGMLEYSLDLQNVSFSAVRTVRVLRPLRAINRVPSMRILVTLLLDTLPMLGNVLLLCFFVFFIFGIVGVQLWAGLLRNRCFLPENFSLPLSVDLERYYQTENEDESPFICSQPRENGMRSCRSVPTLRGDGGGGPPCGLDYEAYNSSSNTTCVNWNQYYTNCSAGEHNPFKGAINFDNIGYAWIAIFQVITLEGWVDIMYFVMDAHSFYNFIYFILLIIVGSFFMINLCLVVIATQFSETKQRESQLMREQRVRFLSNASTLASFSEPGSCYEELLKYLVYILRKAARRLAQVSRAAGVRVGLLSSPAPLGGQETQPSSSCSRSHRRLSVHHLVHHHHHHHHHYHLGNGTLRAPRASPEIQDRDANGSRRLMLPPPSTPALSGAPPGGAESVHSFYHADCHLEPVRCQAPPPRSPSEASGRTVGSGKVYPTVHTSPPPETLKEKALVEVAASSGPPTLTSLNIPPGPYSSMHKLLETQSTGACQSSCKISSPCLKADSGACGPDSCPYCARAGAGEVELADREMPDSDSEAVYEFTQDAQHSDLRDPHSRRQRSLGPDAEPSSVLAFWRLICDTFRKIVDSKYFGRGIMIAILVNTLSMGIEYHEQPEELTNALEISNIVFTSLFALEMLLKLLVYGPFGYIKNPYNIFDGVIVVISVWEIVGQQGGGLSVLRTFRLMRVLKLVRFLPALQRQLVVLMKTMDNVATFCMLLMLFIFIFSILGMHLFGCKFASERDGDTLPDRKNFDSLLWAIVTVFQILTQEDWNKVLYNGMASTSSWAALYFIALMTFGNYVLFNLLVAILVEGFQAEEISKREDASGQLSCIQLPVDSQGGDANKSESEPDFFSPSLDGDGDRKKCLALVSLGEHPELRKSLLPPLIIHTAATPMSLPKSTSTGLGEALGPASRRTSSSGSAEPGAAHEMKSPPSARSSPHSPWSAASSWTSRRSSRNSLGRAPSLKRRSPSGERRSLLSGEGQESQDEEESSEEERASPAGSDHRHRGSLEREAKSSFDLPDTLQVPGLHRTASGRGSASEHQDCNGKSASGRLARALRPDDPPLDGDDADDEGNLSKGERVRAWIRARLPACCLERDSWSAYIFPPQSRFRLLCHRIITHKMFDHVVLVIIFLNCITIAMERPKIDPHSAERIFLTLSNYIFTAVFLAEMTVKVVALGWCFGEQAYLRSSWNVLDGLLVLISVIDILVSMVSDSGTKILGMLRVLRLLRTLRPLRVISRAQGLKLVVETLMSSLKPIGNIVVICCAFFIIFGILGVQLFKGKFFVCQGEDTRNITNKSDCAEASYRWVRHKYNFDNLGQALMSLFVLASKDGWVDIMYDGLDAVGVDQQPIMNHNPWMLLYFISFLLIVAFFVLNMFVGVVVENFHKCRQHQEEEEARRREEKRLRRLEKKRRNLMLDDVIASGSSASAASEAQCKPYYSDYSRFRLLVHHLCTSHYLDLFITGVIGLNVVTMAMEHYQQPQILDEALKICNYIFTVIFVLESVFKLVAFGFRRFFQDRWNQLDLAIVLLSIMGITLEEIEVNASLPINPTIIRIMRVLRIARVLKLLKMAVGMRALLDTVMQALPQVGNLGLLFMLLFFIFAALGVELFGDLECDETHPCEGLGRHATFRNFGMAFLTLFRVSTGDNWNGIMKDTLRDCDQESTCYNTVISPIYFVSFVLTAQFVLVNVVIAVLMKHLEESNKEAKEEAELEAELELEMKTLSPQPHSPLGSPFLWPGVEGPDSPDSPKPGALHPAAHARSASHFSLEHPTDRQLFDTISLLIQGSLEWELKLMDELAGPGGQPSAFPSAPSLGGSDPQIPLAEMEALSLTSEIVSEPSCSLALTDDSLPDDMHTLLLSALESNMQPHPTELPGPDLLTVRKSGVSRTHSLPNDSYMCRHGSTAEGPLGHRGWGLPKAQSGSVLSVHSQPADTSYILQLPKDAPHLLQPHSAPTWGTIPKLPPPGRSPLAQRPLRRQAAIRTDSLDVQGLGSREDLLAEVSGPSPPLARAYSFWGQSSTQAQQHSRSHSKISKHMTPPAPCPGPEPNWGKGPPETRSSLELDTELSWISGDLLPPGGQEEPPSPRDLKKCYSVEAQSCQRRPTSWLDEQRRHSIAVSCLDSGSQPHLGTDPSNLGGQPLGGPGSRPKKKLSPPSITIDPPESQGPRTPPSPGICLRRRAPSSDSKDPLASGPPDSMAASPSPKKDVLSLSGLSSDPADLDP
# Description: Standard patch-clamp techniques were employed to identify blockers of T-type currents. Briefly, previously described HEK cell lines stably expressing human α1G T-type channels were used for all the recordings (passage #: 4-20, 37° C., 5% CO2). To obtain T-type currents, plastic dishes containing semi-confluent cells were positioned on the stage of a ZEISS AXIOVERT S100 microscope after replacing the culture medium with external solution (see below). Whole-cell patches were obtained using pipettes (borosilicate glass with filament, O.D.: 1.5 mm, I.D.: 0.86 mm, 10 cm length), fabricated on a SUTTER P-97 puller with resistance values of ˜5 MΩ (see below for internal solution).
# T-type currents were reliably obtained by using two voltage protocols: • (1) “non-inactivating”, and (2) “inactivation”
# In the non-inactivating protocol, the holding potential is set at −110 mV and with a pre-pulse at −100 mV for 1 second prior to the test pulse at −40 mV for 50 ms. In the inactivation protocol, the pre-pulse is at approximately −85 mV for 1 second, which inactivates about 15% of the T-type channels.
# Test compounds were dissolved in external solution, 0.1-0.01% DMSO. After ˜10 min rest, they were applied by gravity close to the cell using a WPI microfil tubing. The “non-inactivated” pre-pulse was used to examine the resting block of a compound. The “inactivated” protocol was employed to study voltage-dependent block. However, the initial data shown below were mainly obtained using the non-inactivated protocol only. IC50 values are shown for various compounds of the invention in Table 5.
# [3] = low frequency stimulation 0.067 Hz (tonic block), read-out: IC50 @ 0.067 Hz
# [4] = pulse frequency 0.2 Hz (frequency dependent block), read-out: IC50 @ 0.2 Hz
# [5] = non-inactivating protocol, pre-pulse −100 mV (resting block), read-out: IC50 @ −100 mV
# [6] = −80 mV (inactivation protocol, voltage-dependent block), read-out: IC50 @ −80 mV
"IC50 [1, 3]","IC50 [1, 4]","IC50 [2, 5]","IC50 [2, 6]",Compound
0.291 µM,0.165 µM,0.177 µM,0.141 µM,"CC(C)(C)c1ccc(C(=O)NCCCCNC(=O)CCCCC(c2ccc(F)cc2)c2ccc(F)cc2)cc1 [Compound P34, N-{4-[6,6-Bis-(4-fluoro-phenyl)-hexanoylamino]-butyl}-4-tert-butyl-benzamide]"
0.182 µM,0.132 µM,0.022 µM,0.009 µM,"Cc1ccc(C(=O)NC/C=C/CNC(=O)CCCCC(c2ccc(F)cc2)c2ccc(F)cc2)cc1 [Compound P19, N-{(E)-4-[6,6-Bis-(4-fluoro-phenyl)-hexanoylamino]-but-2-enyl}-4-methyl-benzamide]"
0.052 µM,0.015 µM,0.026 µM,0.007 µM,"O=C(CCCCC(c1ccc(F)cc1)c1ccc(F)cc1)NC/C=C/CNC(=O)COc1ccc(Cl)cc1 [Compound P16, 6,6-Bis-(4-fluoro-phenyl)-hexanoic acid{(E)-4-[2-(4-chloro-phenoxy)-acetylamino]-but-2-enyl}-amide]"
0.43 µM,0.31 µM,–,–,"COc1c(C(C)(C)C)cc(C(=O)NC/C=C\CNC(=O)CCCCC(c2ccc(F)cc2)c2ccc(F)cc2)cc1C(C)(C)C [Compound P2, N-{(Z)-4-[6,6-Bis-(4-fluoro-phenyl)-hexanoylamino]-but-2-enyl}-3,5-di-tert-butyl-4-methoxy-benzamide]"
0.039 µM,0.01 µM,0.063 µM,0.029 µM,"O=C(CCCCC(c1ccc(F)cc1)c1ccc(F)cc1)NCCCCNC(=O)COc1ccc(Cl)cc1 [Compound P36, 6,6-Bis-(4-fluoro-phenyl)-hexanoic acid{4-[2-(4-chloro-phenoxy)-acetylamino]-butyl}-amide]"
0.188 µM,0.134 µM,0.126 µM,0.043 µM,"O=C(CCCCC(c1ccc(F)cc1)c1ccc(F)cc1)NC/C=C/CNC(=O)c1ccc(F)cc1 [Compound P20, N-{(E)-4-[6,6-Bis-(4-fluoro-phenyl)-hexanoylamino]-but-2-enyl}-4-fluoro-benzamide]"
0.42 µM,0.42 µM,0.094 µM,0.027 µM,"O=C(CC(c1ccccc1)c1ccccc1)NCC#CCN(Cc1cccnc1)Cc1cccnc1 [Compound P31, N-[4-(Bis-pyridin-3-ylmethyl-amino)-but-2-ynyl]-3,3-diphenyl-propionamide]"
0.331 µM,0.196 µM,0.155 µM,0.051 µM,"COc1cc(C(=O)NC/C=C/CNC(=O)CCCCC(c2ccc(F)cc2)c2ccc(F)cc2)cc(OC)c1OC [Compound P11, N-{(E)-4-[6,6-Bis-(4-fluoro-phenyl)-hexanoylamino]-but-2-enyl}-3,4,5-trimethoxy-benzamide]"
0.79 µM,0.54 µM,–,–,"CC(C)(C)c1cc(C(=O)NC/C=C/CNC(=O)CCCCC(c2ccc(F)cc2)c2ccc(F)cc2)cc(C(C)(C)C)c1O [Compound P13, N-{(E)-4-[6,6-Bis-(4-fluoro-phenyl)-hexanoylamino]-but-2-enyl}-3,5-di-tert-butyl-4-hydroxy-benzamide]"
0.809 µM,0.305 µM,0.149 µM,0.039 µM,"O=C(CCCCC(c1ccc(F)cc1)c1ccc(F)cc1)NC/C=C/CNC(=O)c1ccc(Cl)cc1 [Compound P18, N-{(E)-4-[6,6-Bis-(4-fluoro-phenyl)-hexanoylamino]-but-2-enyl}-4-chloro-benzamide]"
0.23 µM,0.19 µM,–,–,"COc1cc(C(=O)NC/C=C\CNC(=O)CCCCC(c2ccc(F)cc2)c2ccc(F)cc2)cc(OC)c1OC [Compound P1, N-{(Z)-4-[6,6-Bis-(4-fluoro-phenyl)-hexanoylamino]-but-2-enyl}-3,4,5-trimethoxy-benzamide]"
0.097 µM,0.054 µM,0.196 µM,0.056 µM,"CC(C)c1ccc(C(=O)NC/C=C\CNC(=O)CCCCC(c2ccc(F)cc2)c2ccc(F)cc2)cc1 [Compound P7, N-{(Z)-4-[6,6-Bis-(4-fluoro-phenyl)-hexanoylamino]-but-2-enyl}-4-isopropyl-benzamide]"
0.22 µM,0.146 µM,0.112 µM,0.034 µM,"COc1c(C(C)(C)C)cc(C(=O)NC/C=C/CNC(=O)CCCCC(c2ccc(F)cc2)c2ccc(F)cc2)cc1C(C)(C)C [Compound P12, N-{(E)-4-[6,6-Bis-(4-fluoro-phenyl)-hexanoylamino]-but-2-enyl}-3,5-di-tert-butyl-4-methoxy-benzamide]"
0.77 µM,0.76 µM,1 µM,0.424 µM,"CC(C)c1ccc(C(=O)NCC#CCNC(=O)CCCCC(c2ccc(F)cc2)c2ccc(F)cc2)cc1 [Compound P25, N-{4-[6,6-Bis-(4-fluoro-phenyl)-hexanoylamino]-but-2-ynyl}-4-isopropyl-benzamide]"
0.34 µM,0.33 µM,0.082 µM,0.021 µM,"O=C(CC(c1ccccc1)c1ccccc1)NCC#CCN(Cc1ccncc1)Cc1ccncc1 [Compound P30, N-[4-(Bis-pyridin-4-ylmethyl-amino)-but-2-ynyl]-3,3-diphenyl-propionamide]"
0.598 µM,0.266 µM,0.007 µM,0.003 µM,"CC(C)c1ccc(C(=O)NC/C=C/CNC(=O)CCCCC(c2ccc(F)cc2)c2ccc(F)cc2)cc1 [Compound P17, N-{(E)-4-[6,6-Bis-(4-fluoro-phenyl)-hexanoylamino]-but-2-enyl}-4-isopropyl-benzamide]"
0.514 µM,0.278 µM,0.423 µM,0.163 µM,"O=C(CC(c1ccccc1)c1ccccc1)NC/C=C/CN(Cc1ccncc1)Cc1ccncc1 [Compound P21, N-[(E)-4-(Bis-pyridin-4-ylmethyl-amino)-but-2-enyl]-3,3-diphenyl-propionamide]"
0.237 µM,0.139 µM,0.358 µM,0.078 µM,"COc1cc(C(=O)NCC#CCNC(=O)CCCCC(c2ccc(F)cc2)c2ccc(F)cc2)cc(OC)c1OC [Compound P22, N-{4-[6,6-Bis-(4-fluoro-phenyl)-hexanoylamino]-but-2-ynyl}-3,4,5-trimethoxy-benzamide]"
0.47 µM,0.27 µM,–,–,"CC(C)(C)c1cc(C(=O)NC/C=C\CNC(=O)CCCCC(c2ccc(F)cc2)c2ccc(F)cc2)cc(C(C)(C)C)c1O [Compound P3, N-{(Z)-4-[6,6-Bis-(4-fluoro-phenyl)-hexanoylamino]-but-2-enyl}-3,5-di-tert-butyl-4-hydroxy-benzamide]"
0.51 µM,0.38 µM,–,–,"CC(C)(C)c1ccc(C(=O)NC/C=C/CNC(=O)CCCCC(c2ccc(F)cc2)c2ccc(F)cc2)cc1 [Compound P14, N-{(E)-4-[6,6-Bis-(4-fluoro-phenyl)-hexanoylamino]-but-2-enyl}-4-tert-butyl-benzamide]"
